In ChEMBL document CHEMBL1201862, “PubChem BioAssay data set” (2004) one finds AC50, EC50 and IC50 data, which are given here for 30 molecules.

Active and inactive are the calls of the source.

The target in series [1] is Cytochrome P450 2C19 (Homo sapiens, UniProt P33261). The experiment in a line: Cytochrome panel assay with activity outcomes. Panel member name: p450-cyp2c19 Compounds with AC50 equal or less than 10 uM are considered active. The format is functional.
Series [2] deals with Cytochrome P450 2D6 (Homo sapiens, UniProt P10635).
Sequence of Cytochrome P450 2D6 (P10635 whole entry): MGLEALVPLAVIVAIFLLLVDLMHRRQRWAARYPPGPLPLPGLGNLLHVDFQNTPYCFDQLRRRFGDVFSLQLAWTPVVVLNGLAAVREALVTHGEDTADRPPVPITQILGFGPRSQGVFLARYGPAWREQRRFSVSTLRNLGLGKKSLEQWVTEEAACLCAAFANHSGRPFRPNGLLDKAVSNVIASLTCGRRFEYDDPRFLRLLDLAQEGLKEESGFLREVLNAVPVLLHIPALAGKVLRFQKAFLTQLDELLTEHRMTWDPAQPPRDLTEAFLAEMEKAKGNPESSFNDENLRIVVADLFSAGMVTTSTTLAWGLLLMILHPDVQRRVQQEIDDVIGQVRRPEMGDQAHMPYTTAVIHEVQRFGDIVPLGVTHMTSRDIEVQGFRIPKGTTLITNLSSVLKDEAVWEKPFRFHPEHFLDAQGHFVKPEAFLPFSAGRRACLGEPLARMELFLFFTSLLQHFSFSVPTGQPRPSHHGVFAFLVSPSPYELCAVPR
Series [3] concerns Streptococcus sp. 'group A'. The experiment in a line: growth inhibition of control SK(-) GAS strain, dose response, counter-screen for streptokinase expression inhibitor project, luminescence, kanamycin, BacTiterGlo, confirmation (AID 1900). The series is classed as functional, organism-based.
For series [4], the target named is T1, Streptokinase A (Streptococcus pyogenes serotype M1, UniProt P10520).
T1 sequence (P10520 whole entry): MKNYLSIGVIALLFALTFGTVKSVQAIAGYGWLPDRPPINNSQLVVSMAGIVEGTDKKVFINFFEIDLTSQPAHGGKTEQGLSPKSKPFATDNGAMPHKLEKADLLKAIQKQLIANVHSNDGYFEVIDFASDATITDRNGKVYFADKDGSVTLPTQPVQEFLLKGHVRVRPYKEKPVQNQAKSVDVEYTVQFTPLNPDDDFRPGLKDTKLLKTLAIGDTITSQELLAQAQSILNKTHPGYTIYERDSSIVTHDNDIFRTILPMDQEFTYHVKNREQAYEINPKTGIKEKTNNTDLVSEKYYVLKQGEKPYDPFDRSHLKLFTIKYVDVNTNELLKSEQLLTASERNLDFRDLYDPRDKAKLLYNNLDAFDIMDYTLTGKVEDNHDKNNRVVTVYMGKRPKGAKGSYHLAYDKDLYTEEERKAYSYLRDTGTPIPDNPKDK
The experiment in a line: S. pyogenes streptokinase expression inhibitors, potency, dose response, plasminogen activation absorbance, OD405 (AID 1914).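 Further: secreted streptokinase activity via plasminogen activation per viability signal from cell pellet.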 The series is classed as functional, Streptococcus pyogenes M1 GAS.

Series [5] has as its system Streptococcus. The experiment in a line: Group A Streptococcus viability loss, dose response, counter-screen for streptokinase expression inhibitor project, luminescence, BacTiterGlo (AID 1915).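 Further: potency for reduction of bacterial viability or growth.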 The series is classed as functional, organism-based. Background: The purpose of a counterscreen is to sort out artefacts and off-target activity.
In series [6] the target is T2, Rac GTPase-activating protein 1 (Homo sapiens, UniProt Q9H0H5).
T2 sequence (Q9H0H5 whole entry): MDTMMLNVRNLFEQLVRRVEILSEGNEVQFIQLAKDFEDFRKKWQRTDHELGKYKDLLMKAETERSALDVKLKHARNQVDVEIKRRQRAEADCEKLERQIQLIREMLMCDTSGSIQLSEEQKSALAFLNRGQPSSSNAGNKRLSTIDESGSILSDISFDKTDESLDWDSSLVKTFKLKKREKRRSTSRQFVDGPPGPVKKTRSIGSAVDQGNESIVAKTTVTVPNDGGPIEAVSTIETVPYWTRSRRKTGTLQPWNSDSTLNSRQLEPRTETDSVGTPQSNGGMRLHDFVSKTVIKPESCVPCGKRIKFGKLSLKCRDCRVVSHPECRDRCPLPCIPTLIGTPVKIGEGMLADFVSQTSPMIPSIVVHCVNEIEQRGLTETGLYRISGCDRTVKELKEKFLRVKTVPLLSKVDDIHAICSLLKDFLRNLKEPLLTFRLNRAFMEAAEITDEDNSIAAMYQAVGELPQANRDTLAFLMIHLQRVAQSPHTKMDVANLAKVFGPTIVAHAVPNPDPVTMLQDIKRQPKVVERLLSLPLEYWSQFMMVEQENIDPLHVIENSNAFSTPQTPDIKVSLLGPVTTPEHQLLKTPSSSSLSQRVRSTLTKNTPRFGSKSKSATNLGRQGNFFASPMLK
The experiment in a line: MgcRacGAP GTPase-activating activity inhibitors, confirmation, biochemical, ADP Hunter fluorescence, primary and confirmatory (AID 624330). The series is classed as functional.

Series [7] addresses Cytochrome P450 2C9 (Homo sapiens, UniProt P11712).
Series [8] concerns the target T3, Replicative DNA helicase DnaB (Mycobacterium tuberculosis, UniProt P9WMR3).
T3 sequence (P9WMR3 whole entry): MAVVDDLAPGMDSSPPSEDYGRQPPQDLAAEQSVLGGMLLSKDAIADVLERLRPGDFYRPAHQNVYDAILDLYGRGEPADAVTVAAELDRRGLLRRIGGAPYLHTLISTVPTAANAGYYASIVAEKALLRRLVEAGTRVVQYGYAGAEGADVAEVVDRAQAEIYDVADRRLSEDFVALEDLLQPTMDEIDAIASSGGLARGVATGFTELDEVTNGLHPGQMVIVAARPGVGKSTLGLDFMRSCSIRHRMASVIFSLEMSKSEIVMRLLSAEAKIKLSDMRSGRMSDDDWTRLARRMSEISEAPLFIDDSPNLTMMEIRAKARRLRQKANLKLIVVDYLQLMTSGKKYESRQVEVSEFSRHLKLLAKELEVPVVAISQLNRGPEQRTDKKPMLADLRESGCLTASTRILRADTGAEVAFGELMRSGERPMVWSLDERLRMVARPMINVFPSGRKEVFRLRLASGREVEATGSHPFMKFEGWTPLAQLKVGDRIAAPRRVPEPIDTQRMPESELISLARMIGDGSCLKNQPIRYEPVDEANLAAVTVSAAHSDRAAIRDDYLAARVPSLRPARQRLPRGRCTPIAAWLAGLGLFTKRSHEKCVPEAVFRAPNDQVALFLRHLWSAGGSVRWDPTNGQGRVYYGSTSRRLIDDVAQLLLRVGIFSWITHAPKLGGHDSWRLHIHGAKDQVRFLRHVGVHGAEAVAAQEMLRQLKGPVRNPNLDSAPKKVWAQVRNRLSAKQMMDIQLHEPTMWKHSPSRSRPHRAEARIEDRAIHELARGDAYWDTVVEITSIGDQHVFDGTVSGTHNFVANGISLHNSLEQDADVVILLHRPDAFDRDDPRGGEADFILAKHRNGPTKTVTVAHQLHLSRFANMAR
The experiment in a line: DnaB intein splicing inhibitors, dose response, biochemical, cell-free fluorescence (AID 449749). The format is functional.

Series [9] deals with T4, Protein RecA (Mycobacterium tuberculosis, UniProt P9WHJ3).
T4 sequence (P9WHJ3 whole entry): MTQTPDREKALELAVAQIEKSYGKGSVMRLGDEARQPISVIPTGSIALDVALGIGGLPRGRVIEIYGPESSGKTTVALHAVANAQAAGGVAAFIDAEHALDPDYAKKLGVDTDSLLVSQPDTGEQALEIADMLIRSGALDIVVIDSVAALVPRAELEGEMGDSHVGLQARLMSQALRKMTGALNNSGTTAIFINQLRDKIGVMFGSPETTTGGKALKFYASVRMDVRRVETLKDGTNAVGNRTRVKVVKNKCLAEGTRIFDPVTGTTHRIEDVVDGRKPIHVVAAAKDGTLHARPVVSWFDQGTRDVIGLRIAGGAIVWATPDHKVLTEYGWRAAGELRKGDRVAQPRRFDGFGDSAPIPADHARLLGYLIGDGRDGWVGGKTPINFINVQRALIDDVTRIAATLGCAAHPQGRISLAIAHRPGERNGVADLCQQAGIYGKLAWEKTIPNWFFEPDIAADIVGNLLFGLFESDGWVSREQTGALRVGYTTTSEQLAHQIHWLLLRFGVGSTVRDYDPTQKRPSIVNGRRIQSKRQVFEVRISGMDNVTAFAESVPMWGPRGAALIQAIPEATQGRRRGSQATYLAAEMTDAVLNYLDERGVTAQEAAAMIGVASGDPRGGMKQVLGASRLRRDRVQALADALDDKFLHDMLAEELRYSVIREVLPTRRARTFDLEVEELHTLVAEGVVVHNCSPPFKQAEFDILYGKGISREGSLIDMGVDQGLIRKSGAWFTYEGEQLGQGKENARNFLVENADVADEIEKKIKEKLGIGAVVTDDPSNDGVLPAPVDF
The experiment in a line: Fluorescence Cell-Free Homogeneous Dose Retest to Identify Inhibitors of RecA-Intein Splicing Activity. [Related pubchem assays (depositor defined):AID2097, AID2223, AID489010, AID492950]. The series is classed as functional.

Series [10] in a line: Luminescence Cell-Based Dose Retest to Confirm Inhibitors of Cancer Stem Cells. [Related pubchem assays (depositor defined):AID2717, AID2721]. The series is classed as functional. Conditions: Homo sapiens.

Sequence of Cytochrome P450 2C19 (P33261 whole entry): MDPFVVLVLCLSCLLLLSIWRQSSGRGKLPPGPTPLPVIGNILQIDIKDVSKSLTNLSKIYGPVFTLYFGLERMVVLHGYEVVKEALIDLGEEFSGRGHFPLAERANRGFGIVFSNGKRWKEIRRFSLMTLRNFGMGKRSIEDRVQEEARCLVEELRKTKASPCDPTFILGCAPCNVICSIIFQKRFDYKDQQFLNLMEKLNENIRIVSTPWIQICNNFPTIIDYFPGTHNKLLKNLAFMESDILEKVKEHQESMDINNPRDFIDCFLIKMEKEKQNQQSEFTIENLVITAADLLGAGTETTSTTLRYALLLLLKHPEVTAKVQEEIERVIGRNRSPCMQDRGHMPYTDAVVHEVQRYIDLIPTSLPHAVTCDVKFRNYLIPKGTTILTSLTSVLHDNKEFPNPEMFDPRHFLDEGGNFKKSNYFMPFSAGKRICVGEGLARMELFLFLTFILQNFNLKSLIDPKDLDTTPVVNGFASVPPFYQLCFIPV
Sequence of Cytochrome P450 2C9 (P11712 whole entry): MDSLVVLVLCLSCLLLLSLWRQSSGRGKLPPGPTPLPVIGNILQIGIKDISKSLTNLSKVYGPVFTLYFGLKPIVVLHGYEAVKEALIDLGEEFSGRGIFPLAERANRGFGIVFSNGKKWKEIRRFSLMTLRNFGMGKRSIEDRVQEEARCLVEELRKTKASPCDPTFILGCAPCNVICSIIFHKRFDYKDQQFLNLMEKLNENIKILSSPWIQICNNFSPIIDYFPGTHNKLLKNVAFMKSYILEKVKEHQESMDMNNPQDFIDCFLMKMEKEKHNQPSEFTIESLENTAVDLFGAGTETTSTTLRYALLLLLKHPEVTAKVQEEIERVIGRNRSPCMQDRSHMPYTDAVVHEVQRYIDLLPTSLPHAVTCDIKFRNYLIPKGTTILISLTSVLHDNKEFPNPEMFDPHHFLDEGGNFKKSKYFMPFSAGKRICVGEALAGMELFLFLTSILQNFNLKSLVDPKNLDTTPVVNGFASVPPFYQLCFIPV

As a reminder, the AC50 is the concentration giving half of the maximal activity seen. Consider `COc1ccc(C2c3c(ncn(CCN4CCOCC4)c3=N)Oc3ccc4ccccc4c32)cc1OC` (stereo not drawn), for which the values for the AC50 in series [1] (read-out: AC50) and in series [2] were 25.1 µM (inconclusive) and 15.8 µM (inconclusive), respectively.

For orientation: EC50 means the midpoint of the concentration-response curve. Regarding `CCOC(=O)c1c(S(=O)(=O)N2CCCCCC2)c(C)n(C)c1C`, the EC50 in [3], in [4] and in [5] was > 150 µM (not active) each time.

By IC50 is commonly meant the midpoint of a concentration-inhibition curve. For the molecule `O=C(CN1CCN(c2ccc(O)cc2)CC1)NCC(=O)Nc1ccc(F)c(F)c1F`, the IC50 in series [6] was 47 µM (active).

Regarding `CCCn1c(N)c(C(=O)CSc2nc(C)cs2)c(=O)n(C)c1=O`, the values for the AC50 in series [2] and in series [7] were 20 µM (inconclusive) and 28.2 µM (inconclusive), respectively.

With `O=C(/C(=N\Nc1ccc([N+](=O)[O-])cc1)Sc1nnnn1-c1ccccc1)c1ccccc1`, the EC50 is 5.19 µM (active) in series [3], > 150 µM (not active) in series [4] and 35.8 µM (active) in series [5].

On to `Fc1ccccc1OCCCCSc1ncccn1`, for which, in series [2], the AC50 is 17.8 µM (inconclusive).

On to `C[C@]12CC[C@@H]3c4ccc(OC(=O)c5ccccc5)cc4CC[C@H]3[C@@H]1CC[C@@H]2O` [ESTRADIOL BENZOATE], for which the EC50 in series [3] is 2.24 µM (active); in series [4] it was 2.43 µM (active); in series [5] it was 4.49 µM (active).

As for `COC(=O)CSc1nnc(C)n1-c1cccc(OC)c1`, the AC50 in series [2] is 3.16 µM (inconclusive).

Regarding `O=C(CNC(=O)c1ccncc1)N/N=C/c1ccc(O)cc1O`, the IC50 in [6] was 75.5 µM (active).

For the molecule `CCCCn1c(C)cc2cc(O)ccc21`, the IC50 in series [6] was 26.9 µM (active).

As to `COc1cccc(-c2cncnc2Nc2ccc(F)cc2)c1`, the AC50 in [2] was 39.8 µM (inconclusive).

Regarding `CC1CCC/C(=C\c2ccc(O)cc2)C1=O` (stereo not drawn), the IC50 in series [6] is 26.6 µM (active).

Turning to `CC(C)(C)c1nnc(N/N=C/c2ccc(O)cc2)n(N)c1=O`, the IC50 in series [6] is 123 µM (active).

As to `O=S(=O)(c1ccccc1)N1CCC2(CCCN(c3ccccc3)C2)CC1`, the AC50 in series [2] is 10 µM (inconclusive).

As for `Cc1ccc(C)c(OCCCCN2CCCCC2)c1`, the IC50 in [6] was 176 µM (active).

With `CC1=CC(C)(C)N(C(=O)CNC2CCCC2)c2cc(C)ccc21`, the IC50 in series [6] is 158 µM (active).

With `Cc1oc2cc(Br)c(O)c(Br)c2c1-c1ccccc1`, the EC50 is 8.24 µM (active) in [3], > 150 µM (not active) in series [4] and 8.18 µM (active) in [5].

For `O=C(NCc1ccccc1)c1cccc(COc2cccc(Cl)c2)c1`, the AC50 in [2] was 31.6 µM (inconclusive).

As for `O=C(O)CC[P+](c1ccccc1)(c1ccccc1)c1ccccc1`, the AC50 entry was “inconclusive” in series [1] and 3.98 µM (inconclusive) in series [2].

In the case of `Cc1ccccc1C(OCC(O)CN1CCN(CCO)CC1)c1ccccc1` (stereo not drawn), the IC50 in series [6] is 80.2 µM (active).

`Nc1ccccc1Sc1nc2ccccc2[nH]1`: the EC50 in series [3] is 21.3 µM (active); in series [4], > 150 µM (not active); in [5], > 150 µM (not active).

Take `COc1cccc(Cn2c(=O)cnc3cnc(Oc4cccc(Cl)c4)nc32)c1`: the AC50 in [2] was 39.8 µM (inconclusive).

Take `Cc1cc(-c2c(C)[nH]n(-c3ccc(Cl)cc3)c2=O)n[nH]1`: the EC50 in series [4] is on record as > 150 µM (not active).

Take `c1cncc(-c2cncnc2NCc2cccs2)c1`: in series [2], the AC50 was 39.8 µM (inconclusive).

For the molecule `Cc1nc(Nc2ccc(O)cc2)c2c3c(sc2n1)CCCC3`, the AC50 in series [8] is > 380 µM (inactive). The EC50 in series [9] is 125 µM (active). Also, in series [6], the IC50 was 28.8 µM (active).

Regarding `c1ccc(-c2cc(-c3ccncc3)nc3ccc4ccccc4c23)cc1`, the EC50 is 3.37 µM (active) in series [3], > 150 µM (not active) in series [4] and 8.51 µM (active) in series [5]. Besides, in series [10], the AC50 was 3.39 µM (active).

In the case of `Cc1cc(OC(=O)CCCNC(=O)OC(C)(C)C)c2c3c(c(=O)oc2c1)CCC3`, the AC50 in series [2] is 15.8 µM (inconclusive).

In the case of `Cc1c(O)ccc(NC(=O)/C=C/c2ccccc2)c1C`, in [6], the IC50 is 41.8 µM (active).

As to `CC(C)(C)OC(=O)[C@H](Cc1ccccc1)NC(=O)c1[nH]cnc1C(=O)Nc1ccc(Cl)cc1`, the EC50 was 3.71 µM (active) in series [3], 21.5 µM (active) in series [4] and 11.1 µM (active) in series [5]. For the same molecule, the AC50 in series [10] is 4.51 µM (active).

As for `Cc1cc(=O)oc2cc(OCC(=O)N3CCN(C(=O)C4COc5ccccc5O4)CC3)ccc12` (stereo not drawn), the results for the EC50 in series [3], in series [4] and in series [5] were 2.83 µM (active), > 50 µM (not active) and 10.4 µM (active), respectively.
